{"source": "patent US10232018B2", "about": "“ACTH for treatment of acute respiratory distress syndrome” (MALLINCKRODT ARD IP LIMITED, priority 2013, dated 2019)", "origin": "cited, not measured here", "key": {"[1]": {"conditions": "Baumann and Felber, 1976"}}, "data": [{"substance": "human 1-39: human ACTH 1-39 (SYSMEHFRWGKPVGKKRRPVKVYPNGAEDESAEAFPLEF; Corticotropin; UniProt P01189 138-176, looked up)", "values": [{"measurement": "duration of action compared with 1-24", "setting": "[1]", "result": "longer duration of action"}]}, {"substance": "ACTH1-23: ACTH fragment 1-23, partial agonist in Hofmann et al. (1970) (SYSMEHFRWGKPVGKKRRPVKVY; Corticotropin; UniProt P01189 138-160, looked up, fragment)", "values": [{"measurement": "partial agonist activity in adrenal stimulation assays in comparison to ACTH1-24 as control", "setting": "adrenal stimulation", "result": 91, "unit": "%"}]}]}
